Laboratory results as given in article PMC10529921, “Structure–Activity Relationship of Novel ACE Inhibitory Undecapeptides from Stropharia rugosoannulata by Molecular Interactions and Activity Analyses” (Foods, 2023).
Where a name gives a salt, the structure may show the parent alone.

How the values were obtained:
[1] = system: Wistar rats; conditions: 10 mg/kg, single gavage; low body weight in two rats given as main reason
Experimental: (§1) Eleven-week-old male SHR rats and Wistar rats (SiPeiFu (Suzhou) Biotechnology Co., Ltd., Suzhou, China) weighing 200–250 g were used. After 7 d of acclimatization feeding, SHR rats and Wistar rats were randomly grouped into 6 rats per group for a single gavage administration treatment. The undecapeptide and the commercial antihypertensive drug Benazepril hydrochloride were administered in a gavage dose of 10 mg/kg body weight (the recommended dose of Benazepril hydrochloride). SHR rats with regular saline treatment were used as the blank control group. The systolic blood pressure (SBP) and diastolic blood pressure (DBP) of rats were monitored by the Softron BP system (Softron BP-2010A, Tokyo, Japan) at 0, 2, 4, 6, 8, and 24 h after drug administration. At the end of the treatment, the organ coefficients were calculated (organ weight as a percentage of the body weight of the rat, mg/g).
(§2) Data from the in vivo tests were presented as means ± standard deviations of 6 measurements.

[2] = system: SHR rats; experiment: Organ coefficients in SHR rats; assay type: in vivo, rat (SHR); conditions: 10 mg/kg, single gavage
Experimental: as §1, §2

[3] = system: SHR rats; experiment: Antihypertensive effect after single gavage in SHR rats; assay type: in vivo, rat (SHR); conditions: n = 6
Experimental: as §1, §2

[4] = 10 mg/kg, most significant effect at 8 h, mean ± SD

Compound: CC(C)C[C@H](NC(=O)[C@@H]1CCCN1C(=O)[C@H](CCCNC(=N)N)NC(=O)[C@H](CC(C)C)NC(=O)[C@H](CCCNC(=N)N)NC(=O)[C@H](CC(=O)O)NC(=O)[C@H](Cc1ccc(O)cc1)NC(=O)[C@H](CC(=O)O)NC(=O)[C@H](CCC(=O)O)NC(=O)[C@H](CCC(N)=O)NC(=O)CN)C(=O)O
- Kidney organ coefficient, Wistar [1]: considerably higher
- Effect on organs, SHR [2]: less impact on the organs of SHR rats
- Heart organ coefficient vs blank control, SHR ([2]; significance p < 0.05): no significant difference

Compound: CCOC(=O)[C@H](CCc1ccccc1)N[C@H]1CCc2ccccc2N(CC(=O)O)C1=O [Benazepril hydrochloride]
- Blood pressure lowering (SBP and DBP), SHR ([3]; 10 mg/kg, 2, 4, 6 and 8 h): better blood pressure lowering effects after 2, 4, 6, and 8 h
- Decrease in DBP, SHR [3, 4]: 39.17 ± 1.81 mmHg
- Decrease in SBP, SHR [3, 4]: 54.94 ± 1.79 mmHg
- Rebound of blood pressure values, SHR ([3]; 10 mg/kg): began to rebound after 8 h
- Time of most significant blood pressure lowering effect, SHR ([3]; 10 mg/kg): 8 h
